These results are taken from the supplement of paper PMC10307832.

Holding throughout (assay): relative viability (nuclei count vs DMSO), 5 days (fraction); higher = more cells survive
Compound in experiment [1]: C=CC(=O)N1CCC[C@@H](n2nc(-c3ccc(Oc4ccccc4)cc3)c3c(N)ncnc32)C1 [Ibrutinib] + Nc1ncn([C@H]2C[C@H](O)[C@@H](CO)O2)c(=O)n1 [Decitabine] (partner 2 µM)
A digest of the protocol: (§1)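 Dosing by pin tool came one day after lung cancer cell lines were seeded in 1536-well plates, using either one drug or a fixed anchor-drug dose plus five library-drug doses (not always all listed) in √10 steps. After 5 days, nuclei were counted on 4× images. Relative viability is treated-well nuclei count divided by vehicle-well nuclei count, and values are medians of duplicate plates.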

Compound in experiment [2]: C=CCc1cccc(/C=N/NC(=O)CN2CCN(Cc3ccccc3)CC2)c1O [PAC-1] + CCNC(=O)c1noc(-c2cc(C(C)C)c(O)cc2O)c1-c1ccc(CN2CCOCC2)cc1 [Luminespib] (partner 0.01 µM)
A digest of the protocol:
as §1

Compound in experiment [3]: C=CCc1cccc(/C=N/NC(=O)CN2CCN(Cc3ccccc3)CC2)c1O [PAC-1] + Nc1ncn([C@H]2C[C@H](O)[C@@H](CO)O2)c(=O)n1 [Decitabine] (partner 2 µM)
Put shortly:
as §1

Compound in experiment [4]: C=CCc1cccc(/C=N/NC(=O)CN2CCN(Cc3ccccc3)CC2)c1O [PAC-1] + O=C(c1cc(Cc2n[nH]c(=O)c3ccccc23)ccc1F)N1CCN(C(=O)C2CC2)CC1 [Olaparib] (partner 8 µM)
A digest of the protocol: as §1

As for SK-MES-1, the relative viability in experiment [1] (first compound 0.005 µM) came out at 0.39; in experiment [1] (first compound 0.01581 µM) it was 0.359; in experiment [1] (first compound 0.05 µM) it was 0.335; in experiment [1] (first compound 0.1581 µM), 0.364; in experiment [1] (first compound 0.5 µM), 0.359; in experiment [2] (first compound 0.02 µM) it was 0.723. Moreover, the relative viability stood at 0.805 in experiment [2] (first compound 0.06325 µM); 0.726 in experiment [2] (first compound 0.2 µM); 0.56 in experiment [2] (first compound 2 µM); 0.432 in experiment [3] (first compound 0.02 µM); 0.389 in experiment [3] (first compound 0.06325 µM); 0.325 in experiment [3] (first compound 0.2 µM). Moreover, the relative viability stood at 0.322 in experiment [3] (first compound 2 µM); 0.717 in experiment [4] (first compound 0.02 µM); 0.711 in experiment [4] (first compound 0.06325 µM); 0.635 in experiment [4] (first compound 0.2 µM); 0.437 in experiment [4] (first compound 2 µM).
